# Measured values as given in ChEMBL document CHEMBL1140428, “Human P2Y(6) receptor: molecular modeling leads to the rational design of a novel agonist based on a unique conformational preference” (J Med Chem, 2005).
# Molecular target: P2Y purinoceptor 6 (Homo sapiens, UniProt Q15077)
# Assay: Stimulation of phospholipase C in 1321N1 astrocytoma cells transfected with human P2Y6 receptor; call rule not given here
# Type: cell-based
# Chain of P2Y purinoceptor 6 (Q15077 whole entry): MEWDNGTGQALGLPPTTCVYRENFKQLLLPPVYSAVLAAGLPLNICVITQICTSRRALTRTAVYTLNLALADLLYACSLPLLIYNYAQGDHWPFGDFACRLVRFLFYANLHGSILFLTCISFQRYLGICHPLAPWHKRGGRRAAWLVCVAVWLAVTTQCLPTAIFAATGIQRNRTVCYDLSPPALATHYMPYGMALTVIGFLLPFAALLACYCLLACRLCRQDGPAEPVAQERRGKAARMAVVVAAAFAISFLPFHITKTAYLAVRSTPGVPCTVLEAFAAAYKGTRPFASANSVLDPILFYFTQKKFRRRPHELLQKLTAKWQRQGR
EC50 (read-out: EC50) [nM],EC50,Structure (SMILES)
230,–,O=c1ccn([C@@]23C[C@H](O)[C@@H](COP(=O)(O)OP(=O)(O)O)[C@@H]2C3)c(=O)[nH]1
–,Not Active,O=c1ccn([C@H]2[C@H](O)[C@H](O)[C@@]3(COP(=O)(O)OP(=O)(O)O)C[C@H]23)c(=O)[nH]1
1720,–,O=c1ccn([C@H]2C[C@H](O)[C@@H](COP(=O)(O)OP(=O)(O)O)O2)c(=O)[nH]1
86,–,O=c1ccn([C@@H]2O[C@H](COP(=O)(O)OP(=O)(O)O)[C@@H](O)[C@H]2O)c(=O)[nH]1 [URIDINE_DIPHOSPHATE]
